According to ChEMBL document CHEMBL5465560, “Selectivity Literature for EUbOPEN Chemogenomic Library” (2024):
Blank lines part the entries; values can stand above or below the compound they belong to.

Legend:
[1] = molecular target: Bromodomain-containing protein 8 (Homo sapiens) (UniProt Q9H0E9); test: Selectivity interaction (Human bromodomain panel (DSF assay)) EUB0000233b BRD8
[2] = molecular target: T1, Dual specificity tyrosine-phosphorylation-regulated kinase 2 (Homo sapiens) (UniProt Q92630); test: Selectivity interaction (Kinase panel (literature)) EUB0001199aCl DYRK2; settings: at 1 µM
T1 sequence (whole entry): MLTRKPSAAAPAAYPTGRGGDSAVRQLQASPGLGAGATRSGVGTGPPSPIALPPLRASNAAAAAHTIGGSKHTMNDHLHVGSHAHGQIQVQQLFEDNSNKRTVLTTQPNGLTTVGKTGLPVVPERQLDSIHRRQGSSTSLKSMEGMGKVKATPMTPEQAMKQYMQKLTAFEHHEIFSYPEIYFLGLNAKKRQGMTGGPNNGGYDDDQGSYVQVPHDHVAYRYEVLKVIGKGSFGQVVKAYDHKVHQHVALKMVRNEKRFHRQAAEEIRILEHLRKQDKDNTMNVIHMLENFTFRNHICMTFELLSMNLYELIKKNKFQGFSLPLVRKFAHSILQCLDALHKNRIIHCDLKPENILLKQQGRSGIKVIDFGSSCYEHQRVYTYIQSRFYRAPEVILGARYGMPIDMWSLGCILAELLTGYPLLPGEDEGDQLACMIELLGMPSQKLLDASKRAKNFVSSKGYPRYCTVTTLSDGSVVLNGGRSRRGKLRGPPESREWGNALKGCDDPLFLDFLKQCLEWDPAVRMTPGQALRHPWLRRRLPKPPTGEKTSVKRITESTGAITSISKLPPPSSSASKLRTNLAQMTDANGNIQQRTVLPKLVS

[3] = molecular target: Tyrosine-protein kinase Lck (Homo sapiens, UniProt P06239); test: Selectivity interaction (Panel of kinases, GPCRs, ion channels and transporters (enzymatic assay)) EUB0000266bCl LCK
[4] = molecular target: T2, Phosphorylase b kinase gamma catalytic chain, liver/testis isoform (Homo sapiens) (UniProt P15735); settings: at 10 µM
T2 sequence (whole entry): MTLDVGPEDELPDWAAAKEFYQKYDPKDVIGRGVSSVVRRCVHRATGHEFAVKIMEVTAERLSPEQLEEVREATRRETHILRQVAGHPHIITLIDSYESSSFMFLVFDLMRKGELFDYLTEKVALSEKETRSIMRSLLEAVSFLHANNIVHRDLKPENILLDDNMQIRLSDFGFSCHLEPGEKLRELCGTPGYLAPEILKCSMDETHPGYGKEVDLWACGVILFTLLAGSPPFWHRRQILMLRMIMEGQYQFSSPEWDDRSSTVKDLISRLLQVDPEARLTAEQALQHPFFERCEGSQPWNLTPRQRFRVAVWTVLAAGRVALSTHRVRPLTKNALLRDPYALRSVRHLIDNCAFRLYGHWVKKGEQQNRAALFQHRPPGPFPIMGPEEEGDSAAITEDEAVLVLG

[5] = molecular target: Death-associated protein kinase 1 (Homo sapiens, UniProt P53355); test: Selectivity interaction (KinomeScan (DiscoverX)) EUB0001049a DAPK1; settings: at 1 µM
[6] = molecular target: Ribosomal protein S6 kinase alpha-3 (Homo sapiens, UniProt P51812); test: Selectivity interaction (KinomeScan (DiscoverX)) EUB0000045b RPS6KA3
[7] = molecular target: Serine/threonine-protein kinase PLK1 (Homo sapiens, UniProt P53350); test: Selectivity interaction (Kinase panel (KiNativ target engagement assay in Jurkat cells)) EUB0001635a PLK1; format: cell-based; settings: Selectivity number of off-targets 0.0, Selectivity number of targets 233.0, Source Knowledge https://www.sciencedirect.com/science/article/pii/S2451945619300674?via%3Dihub, at 1 µM
[8] = molecular target: T3, Cyclin-dependent kinase 11A (Homo sapiens) (UniProt Q9UQ88); test: Selectivity interaction (ActivX KiNativ screen (ex vivo kinase selectivity in human PBMCs)) EUB0001619a CDK11A; format: cell-based; settings: PBMC, at 1 µM
T3 sequence (whole entry): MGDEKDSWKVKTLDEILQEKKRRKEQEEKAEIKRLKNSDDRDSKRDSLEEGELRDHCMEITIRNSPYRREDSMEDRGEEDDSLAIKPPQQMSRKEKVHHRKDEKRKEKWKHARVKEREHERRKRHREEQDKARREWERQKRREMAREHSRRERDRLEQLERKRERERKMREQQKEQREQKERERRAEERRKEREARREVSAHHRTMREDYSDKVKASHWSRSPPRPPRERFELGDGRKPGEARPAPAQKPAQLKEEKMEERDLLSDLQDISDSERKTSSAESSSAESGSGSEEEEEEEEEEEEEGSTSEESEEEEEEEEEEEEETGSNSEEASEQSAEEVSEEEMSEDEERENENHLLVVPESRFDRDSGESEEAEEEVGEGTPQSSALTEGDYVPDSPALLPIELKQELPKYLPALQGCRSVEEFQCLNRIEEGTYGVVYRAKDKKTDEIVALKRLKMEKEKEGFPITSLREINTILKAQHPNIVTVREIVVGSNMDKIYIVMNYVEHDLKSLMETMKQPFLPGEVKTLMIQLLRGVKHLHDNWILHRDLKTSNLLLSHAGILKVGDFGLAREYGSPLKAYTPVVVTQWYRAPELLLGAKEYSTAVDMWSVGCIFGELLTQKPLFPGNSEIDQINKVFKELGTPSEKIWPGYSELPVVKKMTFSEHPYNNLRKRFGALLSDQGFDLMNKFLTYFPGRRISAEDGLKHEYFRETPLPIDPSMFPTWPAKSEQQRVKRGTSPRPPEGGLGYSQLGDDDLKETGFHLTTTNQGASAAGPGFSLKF

Sequence of Ribosomal protein S6 kinase alpha-3 (P51812 whole entry): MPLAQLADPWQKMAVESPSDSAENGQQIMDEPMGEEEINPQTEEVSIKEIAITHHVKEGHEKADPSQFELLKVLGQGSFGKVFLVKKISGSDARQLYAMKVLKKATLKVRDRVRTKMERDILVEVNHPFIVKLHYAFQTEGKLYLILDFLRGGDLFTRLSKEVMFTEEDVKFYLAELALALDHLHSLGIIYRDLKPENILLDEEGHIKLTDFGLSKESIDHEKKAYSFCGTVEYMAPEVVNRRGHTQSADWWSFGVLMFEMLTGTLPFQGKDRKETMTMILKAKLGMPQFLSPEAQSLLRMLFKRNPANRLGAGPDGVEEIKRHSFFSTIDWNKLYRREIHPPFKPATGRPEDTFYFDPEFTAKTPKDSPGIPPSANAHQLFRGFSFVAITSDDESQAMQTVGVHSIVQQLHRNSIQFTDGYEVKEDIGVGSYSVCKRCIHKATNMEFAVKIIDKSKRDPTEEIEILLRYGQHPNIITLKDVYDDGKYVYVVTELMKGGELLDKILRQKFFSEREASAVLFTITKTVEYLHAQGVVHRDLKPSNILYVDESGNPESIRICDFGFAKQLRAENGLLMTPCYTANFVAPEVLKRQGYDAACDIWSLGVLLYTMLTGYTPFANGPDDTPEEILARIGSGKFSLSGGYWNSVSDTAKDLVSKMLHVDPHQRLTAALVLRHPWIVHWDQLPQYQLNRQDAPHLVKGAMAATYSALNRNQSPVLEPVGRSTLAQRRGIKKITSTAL
Sequence of Serine/threonine-protein kinase PLK1 (P53350 whole entry): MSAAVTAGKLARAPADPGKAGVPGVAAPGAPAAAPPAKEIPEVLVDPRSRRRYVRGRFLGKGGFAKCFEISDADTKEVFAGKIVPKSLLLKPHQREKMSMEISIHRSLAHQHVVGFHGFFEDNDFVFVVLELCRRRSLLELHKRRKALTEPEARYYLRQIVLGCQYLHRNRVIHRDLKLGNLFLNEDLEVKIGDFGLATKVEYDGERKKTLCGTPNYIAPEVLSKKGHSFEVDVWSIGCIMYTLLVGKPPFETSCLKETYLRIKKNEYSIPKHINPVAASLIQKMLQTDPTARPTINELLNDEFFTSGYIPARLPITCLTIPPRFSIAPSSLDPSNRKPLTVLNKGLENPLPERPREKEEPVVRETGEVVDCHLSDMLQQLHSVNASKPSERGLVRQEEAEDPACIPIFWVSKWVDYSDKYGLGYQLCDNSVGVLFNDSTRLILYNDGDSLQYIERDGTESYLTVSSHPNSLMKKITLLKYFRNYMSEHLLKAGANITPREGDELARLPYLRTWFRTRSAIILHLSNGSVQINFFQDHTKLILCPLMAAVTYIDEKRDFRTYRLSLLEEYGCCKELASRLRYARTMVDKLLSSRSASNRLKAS
Sequence of Tyrosine-protein kinase Lck (P06239 2-509 limits assumed): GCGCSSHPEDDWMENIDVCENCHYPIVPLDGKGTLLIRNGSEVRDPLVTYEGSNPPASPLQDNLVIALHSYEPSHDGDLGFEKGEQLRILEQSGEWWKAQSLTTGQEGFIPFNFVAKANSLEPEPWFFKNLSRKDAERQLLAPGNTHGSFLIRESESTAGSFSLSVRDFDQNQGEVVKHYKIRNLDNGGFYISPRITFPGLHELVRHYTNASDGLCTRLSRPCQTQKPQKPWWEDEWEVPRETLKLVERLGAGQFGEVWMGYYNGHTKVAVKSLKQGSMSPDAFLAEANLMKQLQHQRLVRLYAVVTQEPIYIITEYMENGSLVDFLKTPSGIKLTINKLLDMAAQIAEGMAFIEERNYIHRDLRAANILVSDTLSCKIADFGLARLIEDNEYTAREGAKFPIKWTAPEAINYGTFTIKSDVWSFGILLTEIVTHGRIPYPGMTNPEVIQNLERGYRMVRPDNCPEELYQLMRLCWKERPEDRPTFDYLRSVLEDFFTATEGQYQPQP
Sequence of Bromodomain-containing protein 8 (Homo sapiens) (Q9H0E9 whole entry): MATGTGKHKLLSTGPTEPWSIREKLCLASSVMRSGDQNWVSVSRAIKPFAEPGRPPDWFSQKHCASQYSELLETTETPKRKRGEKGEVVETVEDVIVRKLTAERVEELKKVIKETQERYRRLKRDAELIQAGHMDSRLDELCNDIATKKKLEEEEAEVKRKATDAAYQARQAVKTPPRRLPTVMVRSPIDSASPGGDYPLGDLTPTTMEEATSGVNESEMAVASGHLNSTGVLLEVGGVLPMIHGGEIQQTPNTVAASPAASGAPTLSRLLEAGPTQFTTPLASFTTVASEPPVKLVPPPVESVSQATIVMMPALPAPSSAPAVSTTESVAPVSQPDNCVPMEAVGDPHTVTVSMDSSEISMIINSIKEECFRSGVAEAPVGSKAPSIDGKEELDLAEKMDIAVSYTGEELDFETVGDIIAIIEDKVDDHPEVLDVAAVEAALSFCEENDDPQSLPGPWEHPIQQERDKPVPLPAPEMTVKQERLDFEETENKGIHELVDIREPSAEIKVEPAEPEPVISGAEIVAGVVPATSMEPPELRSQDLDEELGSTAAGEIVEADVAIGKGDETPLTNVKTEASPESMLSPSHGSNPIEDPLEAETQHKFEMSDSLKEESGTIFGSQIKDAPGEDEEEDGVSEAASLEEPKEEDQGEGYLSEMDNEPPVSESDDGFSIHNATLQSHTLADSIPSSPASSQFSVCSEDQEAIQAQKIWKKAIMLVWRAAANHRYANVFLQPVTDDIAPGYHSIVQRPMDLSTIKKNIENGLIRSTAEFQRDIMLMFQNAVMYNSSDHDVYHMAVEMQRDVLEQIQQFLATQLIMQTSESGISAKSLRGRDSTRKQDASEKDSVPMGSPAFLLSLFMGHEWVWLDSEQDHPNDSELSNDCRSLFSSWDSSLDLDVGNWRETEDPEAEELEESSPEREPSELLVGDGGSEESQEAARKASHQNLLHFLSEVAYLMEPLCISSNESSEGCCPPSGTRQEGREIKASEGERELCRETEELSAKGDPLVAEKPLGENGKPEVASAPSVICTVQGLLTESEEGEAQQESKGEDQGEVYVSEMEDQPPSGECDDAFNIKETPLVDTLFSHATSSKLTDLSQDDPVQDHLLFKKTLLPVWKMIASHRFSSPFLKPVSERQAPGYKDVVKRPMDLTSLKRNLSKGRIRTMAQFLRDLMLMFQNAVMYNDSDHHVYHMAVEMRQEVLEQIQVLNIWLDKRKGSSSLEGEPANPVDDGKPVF
Sequence of Death-associated protein kinase 1 (P53355 whole entry, looked up): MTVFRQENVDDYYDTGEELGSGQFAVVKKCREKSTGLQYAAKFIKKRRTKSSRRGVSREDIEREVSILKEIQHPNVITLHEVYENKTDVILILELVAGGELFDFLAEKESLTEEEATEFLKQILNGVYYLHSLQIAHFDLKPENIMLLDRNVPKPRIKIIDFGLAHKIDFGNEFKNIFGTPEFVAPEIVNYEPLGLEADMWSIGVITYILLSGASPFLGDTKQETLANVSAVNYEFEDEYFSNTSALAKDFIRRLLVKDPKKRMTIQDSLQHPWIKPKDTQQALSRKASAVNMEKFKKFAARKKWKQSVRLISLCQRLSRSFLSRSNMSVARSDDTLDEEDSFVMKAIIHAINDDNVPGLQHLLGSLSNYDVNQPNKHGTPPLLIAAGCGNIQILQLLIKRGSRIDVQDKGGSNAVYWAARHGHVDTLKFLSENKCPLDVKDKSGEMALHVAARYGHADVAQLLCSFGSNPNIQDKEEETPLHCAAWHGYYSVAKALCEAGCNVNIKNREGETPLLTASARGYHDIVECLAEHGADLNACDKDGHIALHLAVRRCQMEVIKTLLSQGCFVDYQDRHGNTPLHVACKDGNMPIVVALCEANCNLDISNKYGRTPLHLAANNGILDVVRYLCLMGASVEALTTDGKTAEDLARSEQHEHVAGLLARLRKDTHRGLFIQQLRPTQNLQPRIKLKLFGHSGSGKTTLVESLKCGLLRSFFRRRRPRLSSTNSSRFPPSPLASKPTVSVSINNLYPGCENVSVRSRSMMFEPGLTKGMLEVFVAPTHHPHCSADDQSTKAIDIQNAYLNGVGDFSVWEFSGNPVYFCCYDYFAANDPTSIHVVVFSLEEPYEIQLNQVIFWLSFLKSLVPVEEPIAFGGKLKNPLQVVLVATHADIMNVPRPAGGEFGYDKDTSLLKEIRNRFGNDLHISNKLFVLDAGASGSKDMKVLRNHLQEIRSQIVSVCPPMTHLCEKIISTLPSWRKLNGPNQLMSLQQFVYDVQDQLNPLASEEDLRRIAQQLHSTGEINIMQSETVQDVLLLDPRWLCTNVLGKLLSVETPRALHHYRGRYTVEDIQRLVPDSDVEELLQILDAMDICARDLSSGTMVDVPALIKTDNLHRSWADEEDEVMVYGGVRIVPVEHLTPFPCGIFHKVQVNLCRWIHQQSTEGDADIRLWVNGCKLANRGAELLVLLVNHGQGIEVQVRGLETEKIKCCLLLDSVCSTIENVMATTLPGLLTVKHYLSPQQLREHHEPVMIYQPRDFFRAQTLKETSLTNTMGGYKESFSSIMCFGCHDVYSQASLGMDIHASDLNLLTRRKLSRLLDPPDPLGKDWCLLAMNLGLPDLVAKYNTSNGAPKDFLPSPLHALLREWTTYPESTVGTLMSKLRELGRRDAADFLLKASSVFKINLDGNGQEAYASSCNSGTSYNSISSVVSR

dTM [1]: < 2 K
SMILES: CN(C)CCCOc1ccc(-c2cc(NCCCn3cccn3)nc(S(C)(=O)=O)n2)cc1

% of inhibition [2]: 13%
SMILES: CN1Cc2nccc(-c3cn(C)nc3-c3ccc(F)cc3)c2C1=O

pXC50 [3]: < 4.5 M
SMILES: CCn1c(-c2nc3cc(C(=O)N4CCCC(N)C4)ccc3n2C)cc2ccccc21 (centres undefined)

% of control [4]: 100%
SMILES: CCN(CC)CCCCNc1ncc2cc(-c3cc(OC)cc(OC)c3)c(NC(=O)NC(C)(C)C)nc2n1

SMILES: COc1cc(Nc2nc(C)cc(-c3cnn4nc(OC)ccc34)n2)cc(C(F)(F)F)c1
% of control [5]: 88%

SMILES: C=CC(=O)Nc1cc(-n2c(=O)ccc3cnc4ccc(-c5ccc(NS(C)(=O)=O)cc5)cc4c32)ccc1C
% of control ([6]; at 1 µM): 81%
% of control ([6]; at 10 µM): 100%

SMILES: C=CC(=O)Nc1ccc(C(=O)Nc2[nH]nc3c2CN(C(=O)N[C@H](CN(C)C)c2ccccc2)C3(C)C)cc1
% of engagement [7]: 5%

SMILES: N#Cc1cccc(-c2c[nH]c3ncnc(N4CCOCC4)c23)c1
% of inhibition [8]: 36%
